Experimental data from patent publication US20230143612A1 (Arbutus Biopharma Corporation, priority 2020, published 2023).

Target: PD-L1 His protein / PD-1 Fc protein (Homo sapiens, UniProt Q9NZQ7)
Assay: HTRF Assay (PD-1/PD-L1 interaction)
Assay type: binding
Conditions: PD-L1 His 6 nM, PD-1 Fc 6 nM
Method in brief: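 Compounds tested from 20 μM down to 0.001 μM (3-fold) against 6 nM PD-L1 His and 6 nM PD-1 Fc, 15 min room temperature incubation. Detection after 1 h at room temperature with Tb cryptate anti-6HIS and XL665 anti-human IgG reagents (mixture at 0.35 nM and 6.7 nM), HTRF signal.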

Chain of PD-L1 His protein / PD-1 Fc protein (Q9NZQ7 19-238 limits assumed): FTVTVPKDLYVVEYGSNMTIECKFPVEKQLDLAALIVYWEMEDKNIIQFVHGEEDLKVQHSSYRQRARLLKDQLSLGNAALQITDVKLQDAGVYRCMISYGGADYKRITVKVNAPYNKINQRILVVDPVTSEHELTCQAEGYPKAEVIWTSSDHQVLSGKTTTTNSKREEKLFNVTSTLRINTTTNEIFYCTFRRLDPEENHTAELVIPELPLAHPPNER

Compound	IC50 [nM]
COc1nc(-c2cccc(-c3cccc(-c4cnc(NCCNC(C)=O)c(OC)n4)c3Cl)c2Cl)cnc1NCCNC(C)=O [Example 38, N,N′-((((2,2′-Dichloro-[1,1′-biphenyl]-3,3′-diyl)bis(3-methoxypyrazine-5,2-diyl))bis(azanediyl))bis(ethane-2,1-diyl))diacetamide]	20
COc1nc(NCCNC(C)=O)cnc1-c1cccc(-c2cccc(-c3ncc(NCCNC(C)=O)nc3OC)c2Cl)c1Cl [Example 39, N,N′-((((2,2′-Dichloro-[1,1′-biphenyl]-3,3′-diyl)bis(6-methoxypyrazine-5,2-diyl))bis(azanediyl))bis(ethane-2,1-diyl))diacetamide]	1000
CN1CCC(NC[C@@H]2CCC(=O)N2)c2ccc(-c3cccc(-c4cccc(-c5ccc6c(n5)N(C)CCC6NC[C@@H]5CCC(=O)N5)c4Cl)c3Cl)nc21 (stereo partly drawn) [Example 42, (5S,5'S)-5,5′-((((2,2′-Dichloro-[1,1′-biphenyl]-3,3′-diyl)bis(1-methyl-1,2,3,4-tetrahydro-1,8-naphthyridine-7,4-diyl))bis(azanediyl))bis(methylene))bis(pyrrolidin-2-one)]	2.3
O=C1CC[C@@H](CNC2COc3nc(-c4cccc(-c5cccc(-c6ccc7c(n6)OCC7NC[C@@H]6CCC(=O)N6)c5Cl)c4Cl)ccc32)N1 (stereo partly drawn) [Example 44, (5S,5'S)-5,5′-((((2,2′-Dichloro-[1,1′-biphenyl]-3,3′-diyl)bis(2,3-dihydrofuro[2,3-b]pyridine-6,3-diyl))bis(azanediyl))bis(methylene))bis(pyrrolidin-2-one)]	550
COc1nc(-c2cccc(-c3cccc(-c4ccn5c(=O)c(CNC[C@@H]6CCC(=O)N6)cnc5c4)c3Cl)c2Cl)cnc1CNC[C@@H]1CCC(=O)N1 [Example 47, 8-(2,2′-Dichloro-3′-(6-methoxy-5-(((((S)-5-oxopyrrolidin-2-yl)methyl)amino)methyl)pyrazin-2-yl)-[1,1′-biphenyl]-3-yl)-3-(((((S)-5-oxopyrrolidin-2-yl)methyl)amino)methyl)-4H-pyrido[1,2-a]pyrimidin-4-one]	1.4
O=C1CC[C@@H](CNCc2cnc3cc(-c4cccc(-c5cccc(-c6ccn7c(=O)c(CNC[C@@H]8CCC(=O)N8)cnc7c6)c5Cl)c4Cl)ccn3c2=O)N1 [Example 48, (S)-8,8′-(2,2′-Dichloro-[1,1′-biphenyl]-3,3′-diyl)bis(3-(((((S)-5-oxopyrrolidin-2-yl)methyl)amino)methyl)-4H-pyrido[1,2-a]pyrimidin-4-one)]	7
COc1nc(-c2cccc(-c3cccc(-c4ccn5c(=O)c(CNC[C@@H]6CCC(=O)N6)ccc5c4)c3C)c2Cl)cnc1CNC[C@@H]1CCC(=O)N1 [Example 49, 8-(2′-Chloro-3′-(6-methoxy-5-(((((S)-5-oxopyrrolidin-2-yl)methyl)amino)methyl)pyrazin-2-yl)-2-methyl-[1,1′-biphenyl]-3-yl)-3-(((((S)-5-oxopyrrolidin-2-yl)methyl)amino)methyl)-4H-quinolizin-4-one]	6.3
Cc1c(-c2ccn3c(=O)c(CNC[C@@H]4CCC(=O)N4)cnc3c2)cccc1-c1cccc(-c2ccc(CNC[C@@H]3CCC(=O)N3)c(Cl)n2)c1Cl [Example 50, 8-(2′-Chloro-3′-(6-chloro-5-(((((S)-5-oxopyrrolidin-2-yl)methyl)amino)methyl)pyridin-2-yl)-2-methyl-[1,1′-biphenyl]-3-yl)-3-(((((S)-5-oxopyrrolidin-2-yl)methyl)amino)methyl)-4H-pyrido[1,2-a]pyrimidin-4-one]	8.1
COc1nc(-c2cccc(-c3cccc(-c4ccn5c(=O)c(CN(C)C[C@@H]6CCC(=O)N6)cnc5c4)c3C)c2Cl)ccc1CNC[C@@H]1CCC(=O)N1 [Example 54, 8-(2′-Chloro-3′-(6-methoxy-5-(((((S)-5-oxopyrrolidin-2-yl)methyl)amino)methyl)pyridin-2-yl)-2-methyl-[1,1′-biphenyl]-3-yl)-3-((methyl(((S)-5-oxopyrrolidin-2-yl)methyl)amino)methyl)-4H-pyrido[1,2-a]pyrimidin-4-one]	7
